Data set [1] relates to murine primary lung cells (epithelial cells, endothelial cells and fibroblasts). The data set can be described thus: Clonogenic survival of irradiated primary lung cells. The data set is classed as cell-based, mouse. As for the experimental part:
(§1) Fibroblasts and endothelial cells were isolated from C57/bl6 mouse. For fibroblast isolation, mouse lungs were harvested, minced, and incubated with dispase (2 mg/ml) for 45 minutes. Pieces were plated out and fibroblasts were cultured as described previously and used between passages 3 and 10. Pulmonary microvascular endothelial cells (PMVEC) were isolated from murine lungs as described previously. Briefly, freshly harvested mouse lungs were treated with collagenase followed by isolation of cells by adherence to magnetic beads coated with mAb to platelet endothelial cell adhesion molecule (PECAM). Epithelial cells (C10) cells were originally derived from a normal BALB/c mouse lung explant and are non-tumorigenic, contact-inhibited, and have alveolar type 2 cell features at early passage.
Exponentially growing cells were plated as single cells and incubated overnight. Cells were treated with various doses of the lignan SDG (10-50 μM) 6 h prior to irradiation (2, 4, 6 and 8 Gy). Lignan dose was selected based on animal studies to be within the physiological levels reached in the blood circulation when 10% Flaxseed is ingested. Cells were irradiated with a Mark 1 cesium (Cs-137) irradiator (J. L. Shepherd, San Fernando, Calif.) at a dose rate of 1.7 Gy/min Colonies were stained and counted 10 to 15 days after irradiation and surviving fraction was calculated.

In data set [2] the test system is murine primary lung cells (epithelial cells, endothelial cells and WT fibroblasts). Briefly: γ-H2AX flow cytometry (FACS) in irradiated primary lung cells. It counts as cell-based, mouse. The following applies: SDG 50 μM 6 h pre-treatment; 2 Gy; all cell types. As for the experimental part: as §1
For FACS analysis, cells were trypsinized and washed with PBS. Cells were then fixed (Fix/Perm buffer, eBioscience), for 45 minutes and washed thereafter using permeabilization wash buffer (BioLegend, USA). […] Cells were washed again with wash buffer and analyzed. The CyAn ADP (Advanced Digital Processing) flow cytometer (Dako, Denmark) Coulter, Fullerton, Calif.) was used to measure γ-H2AX and positive cells were quantified using Summit Software (Dako, Denmark).

Data set [3] relates to murine primary lung endothelial cells. Briefly: Morphological detection of apoptotic cells, endothelial cells. The note with it: SDG 50 μM pre-treatment; irradiated; 24 h; IR alone 15.1%. It counts as cell-based, mouse. How it is done:
as §1, with “Epithelial cells (C10) cells were originally derived from a normal BALB/c mouse lung explant and are non-tumorigenic, contact-inhibited, and have alveolar type 2 cell features at early passage.” left out
(§2) Apoptotic cells are morphologically characterized by condensation of nucleus and cytoplasm, membrane blebbing, cell shrinkage, and breakdown of nuclear DNA, first in large segments and subsequently in nucleosomal fragments and finally formation of well-enclosed apoptotic bodies. Percentage of cells undergoing apoptosis was determined microscopically from the slides used for micronuclei detection (cytogenetic damage). At least, 500 cells were counted for each experiment (experiment done twice) and percent apoptotic cells were determined as follows: % Cell Death=Na/Nt×100, where Na is the number of cells with apoptotic bodies and Nt is the total number of cells analyzed. Gene Expression Analysis by Quantitative Real Time PCR (qPCR)

Data set [4] concerns murine primary lung fibroblasts. Briefly: Morphological detection of apoptotic cells, fibroblasts. The data set is classed as cell-based, mouse. The following applies: SDG pre-treatment; irradiated. As for the experimental part: as §1, with “Epithelial cells (C10) cells were originally derived from a normal BALB/c mouse lung explant and are non-tumorigenic, contact-inhibited, and have alveolar type 2 cell features at early passage.” left out
as §2

A short description of data set [5]: Hypochlorite-induced chlorination of 2-aminopurine (2-AP). The text has this: (§3) 2-AP in PBS was exposed to hypochlorite and fluorescence spectra recorded between 360-390 nm with the emission maximum at 374 nm. The % change in 2-AP calculated.
Data set [6] in a line: γ-Radiation-induced chlorination of 2-AP.
Source text: as §3
To determine whether radiation induces nucleobase chlorination, we used the same system as above, namely 2-AP fluorescence (FIG. 19A).

Data set [7] deals with human epithelial cells (A549). The data set can be described thus: BaP-induced oxidative DNA damage (8-oxo-dGuo, mass spectrometry). It counts as cell-based. The following applies: SDG 10 μM; 25 μM BaP; 3 and 6 hours post carcinogen exposure.
A further data set concerns mouse epithelial cells. The data set can be described thus: BaP-induced ROS generation (redox-sensitive fluorescence dye). The following applies: 10 or 20 μM BaP; 0.1-5 μM SDG; 2 hours. The data set is classed as cell-based. How it is done:
Exposure of murine epithelial cells to the tobacco and environmental carcinogen benzo-alpha-pyrene (BaP) induces damaging reactive oxygen species (ROS) as detected by a redox-sensitive fluorescence dye (FIG. 23). As early as 2 hours, post exposure to the carcinogen, a robust increase of fluorescence intensity indicates ROS generation in cells.

The subject of data set [8] is human epithelial cells. The data set can be described thus: BaP-induced genotoxic stress (p53 protein levels). The note with it: SDG 5, 10, 25 and 50 μM. It counts as cell-based. The text has this:
(§4) Similarly, SDG prevents genotoxic stress in human epithelial cells exposed to BaP. Exposure of cells to a potent carcinogen such as BaP, induces genotoxic stress as indicated by increased levels of p53 protein (FIG. 25). […] SDG also prevents oxidative DNA damages in human epithelial cells exposed to BaP. Exposure of cells to a potent carcinogen such as BaP, induces oxidative DNA damage as indicated by increased levels of gamma-H2AX, a marker for double-stranded DNA breaks (FIG. 26). […] Furthermore, SDG prevents DNA adduct formation in human epithelial cells exposed to BaP. Exposure of cells to a potent carcinogen such as BaP, induces the formation of DNA adducts (FIG. 27). DNA adducts are pieces of DNA covalently linked to a carcinogen and is directly linked to the development of malignancy. The DNA adduct levels is decreased by the presence of SDG or its metabolites ED and EL given alone or in combination.

Data set [9] relates to human epithelial cells. Briefly: BaP-induced oxidative DNA damage (gamma-H2AX levels). The note with it: SDG 5, 10, 25, 50 and 100 μM. It counts as cell-based.
Source text: as §4

Data set [10] relates to human epithelial cells. The data set can be described thus: BaP-induced DNA adduct formation. It counts as cell-based. The note with it: given alone or in combination.
Source text: as §4

The subject of data set [11] is AOE gene expression (HO-1, NQO1, GST). The data set can be described thus: AOE gene expression in lung in the pharmacokinetic study. The following applies: 100 mg SDG/Kg oral; p<0.05. It counts as in vivo, mouse. As for the experimental part:
After selecting the 100 mg/kg dose as a dose that induces significant AOE expression while allowing for SDG to be detected in circulation, a pharmacokinetic study was performed to determine bioavailability and biological effects in target tissues (i.e., lung). Blood samples as well as tissues (lung, brain, liver, kidneys, spleen) were collected at 15 min, 30 min, and 1, 2, 4, 6, 8, 12 hours. SDG levels were determined as above in plasma and lung (FIGS. 41A-C). A single dose of 100 mg SDG/Kg was well absorbed and intact SDG was detectable in the circulation up to 6 hours post administration (FIG. 41A) and in flushed, blood-free lung tissues for 4 hours (FIG. 41B). […] The observed gene expression increase correlated with an increase in protein levels determined by western blotting (not shown). […] The use of SDG in human therapy is thus greatly facilitated and the toxicity risk is unlikely. Therefore a dose of 50-100 mg/Kg (1 or 2 mg SDG per day) is sufficient to induce the anticipated protective effects in target tissues and can be used for further study.

Each structure is given as a SMILES string.

For `COc1cc(C[C@@H](CO[C@@H]2O[C@H](CO)[C@@H](O)[C@H](O)[C@H]2O)[C@H](CO[C@@H]2O[C@H](CO)[C@@H](O)[C@H](O)[C@H]2O)Cc2ccc(O)c(OC)c2)ccc1O` [SDG, secoisolariciresinol diglucoside], the “Colony forming ability, compound alone” value in data set [1] (SDG 10-50 μM alone, all three cell types, vs untreated control) is “did not elicit any adverse effect”. Further, in data set [1] (SDG prior to irradiation, epithelial and endothelial cells (FIGS. 7A, 7B)), the Surviving fraction entry was “enhanced significantly”. Moreover, in data set [1] (fibroblasts, 6 h pre-treatment), the “SDG concentration giving maximum protection against radiation-induced loss in clonogenicity” value stood at 50 µM. In addition, the “Number of γ-H2AX positive cells (flow cytometry)” value in data set [2] is “significantly abrogated”. Also, in [3], the Apoptotic cells is 10.71%±1.45. Further, the Extent of apoptosis result in [4] is reported as “significantly reduced”. The “Hypochlorite-induced decrease of 2-AP fluorescence, pre-treatment” value in data set [5] (10 μM hypochlorite, SDG pre-treatment 60 seconds) is recorded as “prevented”. Moreover, in data set [5] (SDG added +15 to +300 seconds after ClO^−), the “Hypochlorite-induced 2-AP modification, post-treatment” value is recorded as “significant recovery”. Besides, the “γ-radiation-induced decrease in 2-AP fluorescence intensity” value in [6] is recorded as “prevented”. Further, the “Oxidative DNA damage (8-oxo-dGuo)” value in data set [7] was “decreased DNA damage”. In addition, the ROS result in the data set on mouse epithelial cells is on record as “negligible levels”. The “p53 protein levels (genotoxic stress)” value in the data set with human epithelial cells [8] is “mitigated dose-dependently”. The gamma-H2AX levels entry in the data set on human epithelial cells [9] is reported as “mitigated dose-dependently”. Also, the DNA adduct levels entry in the data set with human epithelial cells [10] is recorded as “decreased”. Besides, the “AOE gene expression levels (HO-1, NQO1, GST) over baseline” value in data set [11] is “significantly elevated”.

Values taken from US10966995B2, “Use of secoisolariciresinol diglucosides (SDGS) and related compounds for protection against radiation and chemical damage” (THE TRUSTEES OF THE UNIVERSITY OF PENNSYLVANIA, priority 2014, dated 2021).
